Data published in patent US11874281B2, “Assays for detecting modified compounds” (Enzo Life Sciences, Inc., priority 2010, dated 2024).

Biological target: human sphingosine kinase 1 (hSK1) (Homo sapiens, UniProt Q9NYA1)
Assay: sphingosine kinase 1 assay with fluoresceinated sphingosine, barium acetate/ethanol precipitation of fluoresceinated S1P, fluorescence readout
Assay type: biochemical
Conditions: 100 μM inhibitor; 4 μM sphingosine fluoresceine; 500 μM ATP; 1 h at 37° C.
Excerpt: Sphingosine is phosphorylated at the non-polar end by the enzymes sphingosine kinase 1 and sphingosine kinase 2, to form sphingosine-1-phosphate (S1P). S1P is an important signaling molecule, and serves in particular as a major regulator of vascular and immune systems. See, e.g., Lloyd-Evans et al., Nat. Med. 14:1247-1255 (2008); Ryu et al., EMBO J. 25:5840-5851 (2006); Maceyka et al., J. Lipid Res. 50:S272-S276 (2009); Peterson et al., Proc. Natl. Acad. Sci. USA 105:20764-20769; and U.S. Pat. No. 6,730,480. Thus, the detection of S1P and the sphingosine kinases is important for the understanding of the various systems that S1P influences. Current methods for separating sphingosine from S1P generally use chromatographic, electrophoretic or spectrometric methods. See, e.g., Bandhuvula et al., Biochem. Biophys. Res. Commun. 380:366-370 (2009); Lee et al., Anal. Chem. 80:1620-1627 (2008); Jin et al., Arch. Pharm. […]
The S1P formed by the enzyme was then precipitated in the reaction mix by the addition of 5 μl of 1 M barium acetate+300 μL of 100% ethanol, followed by 30 min incubation on ice. […] The eluted fluoresceinated S1P was quantified by measuring intensity of fluorescence. Preliminary studies established that the two wash steps were sufficient to remove essentially the entire quantity of unprecipitated sphingosine fluorescein. […]

Sequence of human sphingosine kinase 1 (hSK1) (Q9NYA1 whole entry): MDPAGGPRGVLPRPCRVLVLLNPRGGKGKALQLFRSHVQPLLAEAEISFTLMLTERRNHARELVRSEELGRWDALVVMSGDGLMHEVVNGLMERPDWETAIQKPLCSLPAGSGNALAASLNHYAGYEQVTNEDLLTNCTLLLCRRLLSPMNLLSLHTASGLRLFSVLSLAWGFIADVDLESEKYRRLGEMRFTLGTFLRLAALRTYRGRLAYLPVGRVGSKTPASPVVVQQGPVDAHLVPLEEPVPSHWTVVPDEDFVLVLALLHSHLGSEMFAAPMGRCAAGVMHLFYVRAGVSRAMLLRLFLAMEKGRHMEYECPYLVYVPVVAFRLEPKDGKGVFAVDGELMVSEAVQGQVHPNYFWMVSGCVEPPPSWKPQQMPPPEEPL

## CCCCCCCCCCCCC/C=C/[C@@H](O)[C@@H](N)CO [D/L sphingosine]
  inhibition of hSK1 (precipitation of the fluoresceinated product, FIG. 6): caused less precipitation of the fluoresceinated product

## CCCCCCCCCCCCC/C=C/[C@@H](O)[C@H](CO)N(C)C [DMS, dimethylsphingosine]
  inhibition of hSK1 (precipitation of the fluoresceinated product, FIG. 6): caused less precipitation of the fluoresceinated product
